In ChEMBL document CHEMBL4002580, “Chloromethylhalicyclamine B, a Marine-Derived Protein Kinase CK1δ/ε Inhibitor” (J Nat Prod, 2016):
Active and inactive are the calls of the source. The rule behind the calls is not given here.

Legend:
[1] = species: Sus scrofa; test: Inhibition of porcine brain CK1delta/epsilon at 0.003 to 10 uM using CKS peptide as substrate after 30 mins in presence of [gamma-33P]ATP by scintillation counting method
[2] = target: CDK9/cyclin T1 (Homo sapiens) (UniProt O60563+P50750); test: Inhibition of recombinant human CDK9/cyclin T expressed in insect cells at 0.003 to 10 uM using CDK7/9-Tide as substrate after 30 mins in presence of [gamma-33P]ATP by scintillation counting method
[3] = target: Cyclin-dependent kinase 5/CDK5 activator 1 (Homo sapiens) (UniProt Q00535+Q15078); test: Inhibition of recombinant human CDK5/p25 expressed in Escherichia coli at 0.003 to 10 uM using histone H1 as substrate after 30 mins in presence of [gamma-33P]ATP by scintillation counting method
[4] = target: Dual specificity tyrosine-phosphorylation-regulated kinase 1A (Homo sapiens) (UniProt Q13627); test: Inhibition of GST-fused DYRK1A (unknown origin) expressed in Escherichia coli at 0.003 to 10 uM using RS peptide as substrate after 30 mins in presence of [gamma-33P]ATP by scintillation counting method
[5] = target: Dual specificity protein kinase CLK1 (Mus musculus) (UniProt P22518); test: Inhibition of mouse recombinant GST-fused CLK1 expressed in Escherichia coli at 0.003 to 10 uM using RS peptide as substrate after 30 mins in presence of [gamma-33P]ATP by scintillation counting method
[6] = species: Homo sapiens; test: Inhibition of GSK3 (unknown origin) at 0.003 to 10 uM using GS-1 as substrate after 30 mins in presence of [gamma-33P]ATP by scintillation counting method
[7] = target: Dual specificity protein kinase CLK3 (Mus musculus) (UniProt O35492); test: Inhibition of mouse recombinant GST-fused CLK3 expressed in Escherichia coli at 0.003 to 10 uM using RS peptide as substrate after 30 mins in presence of [gamma-33P]ATP by scintillation counting method
[8] = target: T1, Dual specificity tyrosine-phosphorylation-regulated kinase 3 (Homo sapiens) (UniProt O43781); test: Inhibition of human recombinant GST-fused DYRK3 expressed in Escherichia coli at 0.003 to 10 uM using RS peptide as substrate after 30 mins in presence of [gamma-33P]ATP by scintillation counting method
T1 sequence (whole entry): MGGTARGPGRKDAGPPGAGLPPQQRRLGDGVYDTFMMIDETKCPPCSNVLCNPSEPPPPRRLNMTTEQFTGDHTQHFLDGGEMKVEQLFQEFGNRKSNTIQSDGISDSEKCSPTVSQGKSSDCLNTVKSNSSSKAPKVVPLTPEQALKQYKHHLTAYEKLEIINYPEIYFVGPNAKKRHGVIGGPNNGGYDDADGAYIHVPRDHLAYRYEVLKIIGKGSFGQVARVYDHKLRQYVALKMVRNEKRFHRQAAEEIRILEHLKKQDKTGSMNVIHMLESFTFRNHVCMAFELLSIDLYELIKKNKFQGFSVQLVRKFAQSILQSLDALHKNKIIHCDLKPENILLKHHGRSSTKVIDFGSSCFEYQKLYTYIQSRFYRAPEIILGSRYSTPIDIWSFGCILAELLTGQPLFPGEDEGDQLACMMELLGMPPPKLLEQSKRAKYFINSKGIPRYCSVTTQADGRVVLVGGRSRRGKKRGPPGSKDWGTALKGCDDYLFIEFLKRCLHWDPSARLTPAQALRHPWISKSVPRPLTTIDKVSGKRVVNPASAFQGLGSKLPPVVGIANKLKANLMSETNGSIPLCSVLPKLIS

[9] = target: CDK2/Cyclin A2 (Homo sapiens) (UniProt P24941+P20248); test: Inhibition of CDK2/cyclin A (unknown origin) at 0.003 to 10 uM after 30 mins in presence of [gamma-33P]ATP by scintillation counting method; type: protein-complex assay
[10] = target: Dual specificity protein kinase CLK2 (Mus musculus) (UniProt O35491); test: Inhibition of mouse recombinant GST-fused CLK2 expressed in Escherichia coli at 0.003 to 10 uM using RS peptide as substrate after 30 mins in presence of [gamma-33P]ATP by scintillation counting method
[11] = Inhibition of porcine brain CK1delta/epsilon using CKS peptide as substrate after 30 mins in presence of [gamma-33P]ATP by scintillation counting method; set-up: species or system Sus scrofa
[12] = target: Dual specificity tyrosine-phosphorylation-regulated kinase 1B (Homo sapiens) (UniProt Q9Y463); test: Inhibition of human recombinant GST-fused DYRK1B expressed in Escherichia coli at 0.003 to 10 uM using RS peptide as substrate after 30 mins in presence of [gamma-33P]ATP by scintillation counting method
[13] = target: T2, Dual specificity tyrosine-phosphorylation-regulated kinase 2 (Homo sapiens) (UniProt Q92630); test: Inhibition of human recombinant GST-fused DYRK2 expressed in Escherichia coli at 0.003 to 10 uM using RS peptide as substrate after 30 mins in presence of [gamma-33P]ATP by scintillation counting method
T2 sequence (whole entry): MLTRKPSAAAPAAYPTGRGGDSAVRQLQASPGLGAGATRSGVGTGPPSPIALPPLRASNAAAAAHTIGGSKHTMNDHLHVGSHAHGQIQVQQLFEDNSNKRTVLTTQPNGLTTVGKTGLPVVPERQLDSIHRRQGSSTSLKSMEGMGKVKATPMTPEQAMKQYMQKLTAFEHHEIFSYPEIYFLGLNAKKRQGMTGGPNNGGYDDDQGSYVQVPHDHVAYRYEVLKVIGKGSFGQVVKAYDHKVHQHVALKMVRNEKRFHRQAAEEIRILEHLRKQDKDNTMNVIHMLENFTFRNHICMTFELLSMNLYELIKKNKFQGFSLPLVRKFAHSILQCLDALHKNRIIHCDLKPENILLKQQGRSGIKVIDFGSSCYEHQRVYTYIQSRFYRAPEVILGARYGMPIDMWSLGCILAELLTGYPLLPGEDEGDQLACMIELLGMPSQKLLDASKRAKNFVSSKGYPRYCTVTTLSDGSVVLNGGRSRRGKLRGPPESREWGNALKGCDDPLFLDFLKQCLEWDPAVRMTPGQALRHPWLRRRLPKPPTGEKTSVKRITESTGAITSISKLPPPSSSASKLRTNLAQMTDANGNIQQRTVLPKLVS

[14] = target: Dual specificity protein kinase CLK4 (Mus musculus) (UniProt O35493); test: Inhibition of mouse recombinant GST-fused CLK4 expressed in Escherichia coli at 0.003 to 10 uM using RS peptide as substrate after 30 mins in presence of [gamma-33P]ATP by scintillation counting method
[15] = test system: Leishmania major; test: Inhibition of Leishmania major recombinant CK1 expressed in Escherichia coli at 0.003 to 10 uM using CKS peptide as substrate after 30 mins in presence of [gamma-33P]ATP by scintillation counting method

Sequence of Cyclin-dependent kinase 5/CDK5 activator 1 (Homo sapiens) (Q00535 whole entry, the tested form may be a part): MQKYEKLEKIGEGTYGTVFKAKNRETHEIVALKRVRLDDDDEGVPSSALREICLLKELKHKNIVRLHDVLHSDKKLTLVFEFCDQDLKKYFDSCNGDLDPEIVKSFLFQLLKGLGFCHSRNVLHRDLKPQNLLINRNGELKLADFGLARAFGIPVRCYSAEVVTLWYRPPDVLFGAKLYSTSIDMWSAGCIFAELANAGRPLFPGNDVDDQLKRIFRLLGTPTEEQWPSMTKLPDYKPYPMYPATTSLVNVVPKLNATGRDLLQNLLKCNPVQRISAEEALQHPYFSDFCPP
Sequence of Cyclin-dependent kinase 5/CDK5 activator 1 (Homo sapiens) (Q15078 99-307 partner limits assumed): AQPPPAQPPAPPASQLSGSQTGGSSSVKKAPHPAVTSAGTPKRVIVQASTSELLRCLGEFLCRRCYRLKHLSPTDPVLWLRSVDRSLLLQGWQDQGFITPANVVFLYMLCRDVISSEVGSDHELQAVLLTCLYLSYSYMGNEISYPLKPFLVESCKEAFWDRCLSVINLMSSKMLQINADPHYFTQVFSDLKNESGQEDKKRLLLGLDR
Sequence of Dual specificity protein kinase CLK2 (Mus musculus) (O35491 whole entry, looked up, the tested form may be a part): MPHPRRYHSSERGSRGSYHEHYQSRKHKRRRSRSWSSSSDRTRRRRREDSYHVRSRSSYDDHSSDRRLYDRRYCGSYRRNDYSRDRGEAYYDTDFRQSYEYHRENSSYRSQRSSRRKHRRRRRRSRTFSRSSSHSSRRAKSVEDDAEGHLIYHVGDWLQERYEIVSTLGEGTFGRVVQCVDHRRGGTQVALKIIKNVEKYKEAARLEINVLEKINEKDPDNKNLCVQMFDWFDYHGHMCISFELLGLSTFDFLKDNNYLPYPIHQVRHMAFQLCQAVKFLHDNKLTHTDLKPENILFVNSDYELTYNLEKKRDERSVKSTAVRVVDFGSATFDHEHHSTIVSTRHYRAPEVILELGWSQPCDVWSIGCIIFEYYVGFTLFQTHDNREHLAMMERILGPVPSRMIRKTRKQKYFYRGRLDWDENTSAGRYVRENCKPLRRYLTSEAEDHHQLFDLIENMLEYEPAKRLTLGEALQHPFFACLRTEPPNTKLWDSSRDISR
Sequence of Dual specificity tyrosine-phosphorylation-regulated kinase 1B (Homo sapiens) (Q9Y463 whole entry, looked up, the tested form may be a part): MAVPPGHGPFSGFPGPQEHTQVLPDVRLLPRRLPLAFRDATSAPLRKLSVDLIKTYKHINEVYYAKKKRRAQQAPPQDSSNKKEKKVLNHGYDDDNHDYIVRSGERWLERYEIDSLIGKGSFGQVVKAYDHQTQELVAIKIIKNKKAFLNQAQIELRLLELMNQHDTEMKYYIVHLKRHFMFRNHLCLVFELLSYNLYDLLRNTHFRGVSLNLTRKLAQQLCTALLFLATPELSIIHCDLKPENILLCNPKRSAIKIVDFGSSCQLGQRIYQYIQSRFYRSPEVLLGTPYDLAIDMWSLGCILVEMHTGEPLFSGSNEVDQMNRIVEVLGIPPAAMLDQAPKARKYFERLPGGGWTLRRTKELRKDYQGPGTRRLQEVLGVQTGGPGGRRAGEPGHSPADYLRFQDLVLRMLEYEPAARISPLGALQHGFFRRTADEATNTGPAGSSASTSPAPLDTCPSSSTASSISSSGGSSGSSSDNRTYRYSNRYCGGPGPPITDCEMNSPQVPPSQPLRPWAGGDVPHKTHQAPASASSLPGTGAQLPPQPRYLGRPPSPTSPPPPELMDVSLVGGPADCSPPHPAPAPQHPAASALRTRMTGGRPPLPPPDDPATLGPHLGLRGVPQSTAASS
Sequence of Dual specificity protein kinase CLK4 (Mus musculus) (O35493 whole entry, looked up, the tested form may be a part): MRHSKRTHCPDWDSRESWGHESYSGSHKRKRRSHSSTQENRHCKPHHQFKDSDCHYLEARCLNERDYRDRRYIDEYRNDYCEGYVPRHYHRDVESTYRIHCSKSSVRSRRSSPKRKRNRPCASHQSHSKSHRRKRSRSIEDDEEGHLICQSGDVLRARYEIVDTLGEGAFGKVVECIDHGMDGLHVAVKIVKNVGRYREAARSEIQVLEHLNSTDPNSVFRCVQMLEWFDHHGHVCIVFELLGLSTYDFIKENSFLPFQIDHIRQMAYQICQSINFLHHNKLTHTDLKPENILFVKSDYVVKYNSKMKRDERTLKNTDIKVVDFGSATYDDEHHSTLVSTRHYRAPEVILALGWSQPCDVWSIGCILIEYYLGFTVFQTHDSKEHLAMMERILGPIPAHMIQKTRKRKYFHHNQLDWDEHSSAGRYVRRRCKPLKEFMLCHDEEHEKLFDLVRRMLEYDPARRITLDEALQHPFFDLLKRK
Sequence of Dual specificity protein kinase CLK3 (Mus musculus) (O35492 whole entry, the tested form may be a part): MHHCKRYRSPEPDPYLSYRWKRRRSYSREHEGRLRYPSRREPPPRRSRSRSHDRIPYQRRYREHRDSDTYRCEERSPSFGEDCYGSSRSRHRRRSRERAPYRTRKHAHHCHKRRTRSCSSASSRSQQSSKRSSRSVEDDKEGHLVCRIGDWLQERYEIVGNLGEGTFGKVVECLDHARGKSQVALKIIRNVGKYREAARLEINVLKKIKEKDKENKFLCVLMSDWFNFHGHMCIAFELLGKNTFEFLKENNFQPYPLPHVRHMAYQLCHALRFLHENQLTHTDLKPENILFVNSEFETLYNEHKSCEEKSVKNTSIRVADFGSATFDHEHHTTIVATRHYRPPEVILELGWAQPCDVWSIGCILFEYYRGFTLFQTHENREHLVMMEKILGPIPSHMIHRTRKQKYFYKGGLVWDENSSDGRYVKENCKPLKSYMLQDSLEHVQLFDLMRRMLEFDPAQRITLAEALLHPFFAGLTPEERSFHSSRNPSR
Sequence of Dual specificity protein kinase CLK1 (Mus musculus) (P22518 whole entry, looked up, the tested form may be a part): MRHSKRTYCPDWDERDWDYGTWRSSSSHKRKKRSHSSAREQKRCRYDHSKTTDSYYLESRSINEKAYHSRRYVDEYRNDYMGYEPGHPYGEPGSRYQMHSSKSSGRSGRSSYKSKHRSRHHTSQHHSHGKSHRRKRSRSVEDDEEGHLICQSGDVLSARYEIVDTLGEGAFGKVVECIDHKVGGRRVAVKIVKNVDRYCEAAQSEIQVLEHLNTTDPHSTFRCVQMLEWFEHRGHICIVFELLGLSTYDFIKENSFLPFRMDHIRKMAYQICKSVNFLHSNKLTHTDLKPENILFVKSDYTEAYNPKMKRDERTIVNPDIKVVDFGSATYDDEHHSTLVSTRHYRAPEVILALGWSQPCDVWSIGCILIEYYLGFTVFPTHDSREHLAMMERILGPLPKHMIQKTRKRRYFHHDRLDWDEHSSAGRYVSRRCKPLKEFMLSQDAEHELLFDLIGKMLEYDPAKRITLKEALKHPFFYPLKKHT

Row | inhibition [1] | inhibition [2] | inhibition [3] | inhibition [4] | inhibition [5] | inhibition [6] | inhibition [7] | inhibition [8] | inhibition [9] | inhibition [10] | IC50 [11] [µM] | inhibition [12] | inhibition [13] | inhibition [14] | inhibition [15] | Structure (SMILES)
1 | inactive | inactive | inactive | inactive | inactive | inactive |  |  |  |  |  |  |  |  |  | C1=C2CN3CCCC/C=C\CC[C@@H]4CN(CCCC/C=C\CC[C@H]1C3)CC[C@@H]24
2 |  |  |  |  |  |  | inactive | inactive | inactive | inactive | 6 | inactive | inactive | inactive | inactive | ClC[N@@+]12CCCC/C=C\CC[C@@H]3C=C4CN(CCCC/C=C\CC[C@H](C1)[C@H]4CC2)C3
